In PubChem BioAssay (NCI):
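Assay format: 96-well plates, 48-hour exposure. TGI: total growth inhibition.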

Columns and labels:
Assay in all cases: growth of human tumour cells (NCI), 48 h
SK-MEL-28 melanoma = tested on: SK-MEL-28 melanoma
SNB-75 CNS = tested on: SNB-75 CNS
HCT-15 colon = tested on: HCT-15 colon
DU-145 prostate = tested on: DU-145 prostate
SK-OV-3 ovarian = tested on: SK-OV-3 ovarian
IGROV1 ovarian = tested on: IGROV1 ovarian
HS 578T breast = tested on: HS 578T breast
SF-268 CNS = tested on: SF-268 CNS
BT-549 breast = tested on: BT-549 breast
ACHN renal = tested on: ACHN renal
OVCAR-5 ovarian = tested on: OVCAR-5 ovarian
HL-60(TB) leukemia = tested on: HL-60(TB) leukemia
UACC-62 melanoma = tested on: UACC-62 melanoma
MDA-MB-435 = tested on: MDA-MB-435
SK-MEL-5 melanoma = tested on: SK-MEL-5 melanoma
COLO 205 colon = tested on: COLO 205 colon
A549 NSCLC = tested on: A549 NSCLC
SNB-19 CNS = tested on: SNB-19 CNS
MOLT-4 leukemia = tested on: MOLT-4 leukemia
TK-10 renal = tested on: TK-10 renal
M14 melanoma = tested on: M14 melanoma
U251 CNS = tested on: U251 CNS
HCT-116 colon = tested on: HCT-116 colon
MALME-3M melanoma = tested on: MALME-3M melanoma
NCI-H522 lung = tested on: NCI-H522 lung
EKVX NSCLC = tested on: EKVX NSCLC
HOP-62 NSCLC = tested on: HOP-62 NSCLC
T-47D breast = tested on: T-47D breast
HT29 colon = tested on: HT29 colon
SF-539 CNS = tested on: SF-539 CNS
NCI-H460 lung = tested on: NCI-H460 lung
SR leukemia = tested on: SR leukemia
SN12C renal = tested on: SN12C renal
SF-295 CNS = tested on: SF-295 CNS
RPMI-8226 leukemia = tested on: RPMI-8226 leukemia
OVCAR-4 ovarian = tested on: OVCAR-4 ovarian
MDA-MB-231 breast = tested on: MDA-MB-231 breast
786-0 renal = tested on: 786-0 renal
CCRF-CEM leukemia = tested on: CCRF-CEM leukemia
OVCAR-3 ovarian = tested on: OVCAR-3 ovarian
MDA-N = tested on: MDA-N
HCC-2998 colon = tested on: HCC-2998 colon
UO-31 renal = tested on: UO-31 renal
SW-620 colon = tested on: SW-620 colon
MCF7 breast = tested on: MCF7 breast
CAKI-1 renal = tested on: CAKI-1 renal
LOX IMVI melanoma = tested on: LOX IMVI melanoma
NCI-H23 lung = tested on: NCI-H23 lung
RXF 393 renal = tested on: RXF 393 renal
PC-3 prostate = tested on: PC-3 prostate
NCI-H226 lung = tested on: NCI-H226 lung
UACC-257 melanoma = tested on: UACC-257 melanoma
SK-MEL-2 melanoma = tested on: SK-MEL-2 melanoma
K-562 leukemia = tested on: K-562 leukemia
A498 renal = tested on: A498 renal
KM12 colon = tested on: KM12 colon
OVCAR-8 ovarian = tested on: OVCAR-8 ovarian

In the case of `CN(C)CCNC(=O)c1cc([N+](=O)[O-])cn1C`, the TGI (SK-MEL-28 melanoma) is reported as greater than 100 µM, the TGI (SNB-75 CNS) is reported as greater than 100 µM and the TGI (HCT-15 colon) is reported as greater than 100 µM. For the same molecule, the TGI (DU-145 prostate) was greater than 100 µM, the TGI (SK-OV-3 ovarian) was greater than 100 µM and the TGI (IGROV1 ovarian) was greater than 100 µM. The TGI (HS 578T breast) was greater than 100 µM, the TGI (SF-268 CNS) was greater than 100 µM and the TGI (BT-549 breast) was greater than 100 µM. The TGI (ACHN renal) was greater than 100 µM, the TGI (OVCAR-5 ovarian) was greater than 100 µM and the TGI (HL-60(TB) leukemia) was greater than 100 µM. The TGI (UACC-62 melanoma) was greater than 100 µM, the TGI (MDA-MB-435) was greater than 100 µM and the TGI (SK-MEL-5 melanoma) was greater than 100 µM. The TGI (COLO 205 colon) was greater than 100 µM, the TGI (A549 NSCLC) was greater than 100 µM and the TGI (SNB-19 CNS) was greater than 100 µM. It also gave a TGI (MOLT-4 leukemia) greater than 100 µM, a TGI (TK-10 renal) greater than 100 µM and a TGI (M14 melanoma) greater than 100 µM. For the same molecule, the TGI (U251 CNS) was greater than 100 µM, the TGI (HCT-116 colon) was greater than 100 µM and the TGI (MALME-3M melanoma) was greater than 100 µM. It also gave a TGI (NCI-H522 lung) greater than 100 µM, a TGI (EKVX NSCLC) greater than 100 µM and a TGI (HOP-62 NSCLC) greater than 100 µM. The TGI (T-47D breast) was greater than 100 µM, the TGI (HT29 colon) was greater than 100 µM and the TGI (SF-539 CNS) was greater than 100 µM. For the same molecule, the TGI (NCI-H460 lung) was greater than 100 µM, the TGI (SR leukemia) was greater than 100 µM and the TGI (SN12C renal) was greater than 100 µM. For the same molecule, the TGI (SF-295 CNS) was greater than 100 µM, the TGI (RPMI-8226 leukemia) was greater than 100 µM and the TGI (OVCAR-4 ovarian) was greater than 100 µM. The TGI (MDA-MB-231 breast) was greater than 100 µM, the TGI (786-0 renal) was greater than 100 µM and the TGI (CCRF-CEM leukemia) was greater than 100 µM. The TGI (OVCAR-3 ovarian) was greater than 100 µM, the TGI (MDA-N) was greater than 100 µM and the TGI (HCC-2998 colon) was greater than 100 µM. It also gave a TGI (UO-31 renal) greater than 100 µM, a TGI (SW-620 colon) greater than 100 µM and a TGI (MCF7 breast) greater than 100 µM. It also gave a TGI (CAKI-1 renal) greater than 100 µM, a TGI (LOX IMVI melanoma) greater than 100 µM and a TGI (NCI-H23 lung) greater than 100 µM. The TGI (RXF 393 renal) was greater than 100 µM, the TGI (PC-3 prostate) was greater than 100 µM and the TGI (NCI-H226 lung) was greater than 100 µM. The TGI (UACC-257 melanoma) was greater than 100 µM, the TGI (SK-MEL-2 melanoma) was greater than 100 µM and the TGI (K-562 leukemia) was greater than 100 µM. It also gave a TGI (A498 renal) greater than 100 µM, a TGI (KM12 colon) greater than 100 µM and a TGI (OVCAR-8 ovarian) greater than 100 µM.
With `CN(C)CCNC(=O)c1cnn(C)c1[N+](=O)[O-]` the TGI (SK-MEL-28 melanoma) was greater than 100 µM, the TGI (SNB-75 CNS) was greater than 100 µM and the TGI (HCT-15 colon) was greater than 100 µM. It also gave a TGI (DU-145 prostate) greater than 100 µM, a TGI (SK-OV-3 ovarian) greater than 100 µM and a TGI (IGROV1 ovarian) greater than 100 µM. The TGI (HS 578T breast) was greater than 100 µM, the TGI (SF-268 CNS) was greater than 100 µM and the TGI (BT-549 breast) was greater than 100 µM. The TGI (ACHN renal) was greater than 100 µM, the TGI (OVCAR-5 ovarian) was greater than 100 µM and the TGI (HL-60(TB) leukemia) was greater than 100 µM. It also gave a TGI (UACC-62 melanoma) greater than 100 µM, a TGI (MDA-MB-435) greater than 100 µM and a TGI (SK-MEL-5 melanoma) greater than 100 µM. For the same molecule, the TGI (COLO 205 colon) was 47.8 µM, the TGI (A549 NSCLC) was greater than 100 µM and the TGI (SNB-19 CNS) was greater than 100 µM. The TGI (MOLT-4 leukemia) was greater than 100 µM, the TGI (TK-10 renal) was greater than 100 µM and the TGI (M14 melanoma) was greater than 100 µM. It also gave a TGI (U251 CNS) greater than 100 µM, a TGI (HCT-116 colon) greater than 100 µM and a TGI (MALME-3M melanoma) of 36.1 µM. The TGI (NCI-H522 lung) was greater than 100 µM, the TGI (EKVX NSCLC) was greater than 100 µM and the TGI (HOP-62 NSCLC) was greater than 100 µM. For the same molecule, the TGI (T-47D breast) was greater than 100 µM, the TGI (HT29 colon) was greater than 100 µM and the TGI (SF-539 CNS) was greater than 100 µM. For the same molecule, the TGI (NCI-H460 lung) was greater than 100 µM, the TGI (SR leukemia) was greater than 100 µM and the TGI (SN12C renal) was greater than 100 µM. For the same molecule, the TGI (SF-295 CNS) was greater than 100 µM, the TGI (RPMI-8226 leukemia) was greater than 100 µM and the TGI (OVCAR-4 ovarian) was greater than 100 µM. The TGI (MDA-MB-231 breast) was greater than 100 µM, the TGI (786-0 renal) was greater than 100 µM and the TGI (CCRF-CEM leukemia) was greater than 100 µM. The TGI (OVCAR-3 ovarian) was 70.6 µM, the TGI (MDA-N) was greater than 100 µM and the TGI (HCC-2998 colon) was greater than 100 µM. It also gave a TGI (UO-31 renal) greater than 100 µM, a TGI (SW-620 colon) greater than 100 µM and a TGI (MCF7 breast) greater than 100 µM. It also gave a TGI (CAKI-1 renal) greater than 100 µM, a TGI (LOX IMVI melanoma) greater than 100 µM and a TGI (NCI-H23 lung) greater than 100 µM. It also gave a TGI (RXF 393 renal) greater than 100 µM, a TGI (PC-3 prostate) greater than 100 µM and a TGI (NCI-H226 lung) greater than 100 µM. It also gave a TGI (UACC-257 melanoma) greater than 100 µM, a TGI (SK-MEL-2 melanoma) greater than 100 µM and a TGI (K-562 leukemia) greater than 100 µM. It also gave a TGI (A498 renal) greater than 100 µM, a TGI (KM12 colon) greater than 100 µM and a TGI (OVCAR-8 ovarian) greater than 100 µM.
